In patent US11484607B2, “PSMA-targeted NIR dyes and their uses” (On Target Laboratories, LLC, priority 2015, dated 2022):
pKd: −log10 of the molar value.

What was measured:
PSMA = target: T1, PSMA (Homo sapiens, UniProt Q04609); experiment: Relative binding affinity of DUPA-NIR conjugates with respect to DUPA-FITC on 22Rv1 cells, flow cytometry
T1 construct: host or cells: 22Rv1 human prostate cancer cells

[1] = tested on: human prostate tumor xenografts (22Rv1 cells); experiment: Tissue biodistribution and tumor-to-tissue fluorescence ratio of DUPA-NIR conjugates, IVIS imaging; format: in vivo, mice; conditions: 2 h after tail vein injection
Procedure: In vivo studies. More specifically, biodistribution of DUPA-NIR conjugates 1-9 was monitored using fluorescence imaging of mice bearing human prostate tumor xenografts (22Rv1 cells). Male nude mice with 22Rv1 tumor xenografts were injected with DUPA-NIR dye conjugates via tail vein. The mice were euthanized 2 h after administration of the DUPA-NIR dye conjugate, selected tissues were harvested, and tissues were imaged with IVIS imager (ex=745 nm, em=ICG, exposure time=1 s).
The conjugates were also tested to show the ratio of tumor-to-tissue fluorescence. […] After imaging, fluorescence within a Region of interest (ROI) was measured for each tissue using In Vivo imaging software and tumor-to-tissue fluorescence was then calculated
(§1) in vivo studies. […] Male nude mice with 22Rv1 tumor xenografts were injected with DUPA-NIR dye conjugates via tail vein. The mice were euthanized 2 h after administration of the DUPA-NIR dye conjugate, selected tissues were harvested, and tissues were imaged with IVIS imager (ex=745 nm, em=ICG, exposure time=1 s). After imaging, fluorescence within a Region of interest (ROI) was measured for each tissue using In Vivo imaging software and tumor-to-tissue fluorescence was then calculated.
Male nude mice with 22Rv1 tumor xenografts were injected with DUPA-NIR dye conjugates via tail vein. The mice were euthanized 2 h after administration of the DUPA-NIR dye conjugate, selected tissues were harvested, and tissues were imaged with IVIS imager (ex=745 nm, em=ICG, exposure time=1 s). After imaging, fluorescence within a Region of interest (ROI) was measured for each tissue using In Vivo imaging software and tumor-to-tissue fluorescence was then calculated.
as §1, with “In vivo” for “in vivo”

[2] = tested on: 22Rv1 human prostate tumor xenograft; experiment: Time dependent whole-body fluorescence imaging of DUPA-NIR conjugates, IVIS imager; format: in vivo, mouse; conditions: for whole-body imaging: 6 or 20 nmol, imaged at different time intervals
Procedure: 22Rv1 human prostate tumor xenograft bearing mouse was injected with 20 nmol of 15 and imaged with IVIS imager (ex=745 nm, em=ICG, exposure time=1 s) at different time intervals.
22Rv1 human prostate tumor xenograft bearing mouse was injected with 20 nmol of 23 and imaged with IVIS imager (ex=745 nm, em=ICG, exposure time=1 s) at different time intervals.
22Rv1 human prostate tumor xenograft bearing mouse was injected with 20 nmol of 25 and imaged with IVIS imager (ex=745 nm, em=ICG, exposure time=1 s) at different time intervals
22Rv1 human prostate tumor xenograft bearing mouse was injected with 6 nmol of 35 and imaged with IVIS imager (ex=745 nm, em=ICG, exposure time=1 s) at different time intervals.
22Rv1 human prostate tumor xenograft bearing mouse was injected with 6 nmol of 36 and imaged with IVIS imager (ex=745 nm, em=ICG, exposure time=1 s) at different time intervals.
22Rv1 human prostate tumor xenograft bearing mouse was injected with 20 nmol of 39 and imaged with IVIS imager (ex=745 nm, em=ICG, exposure time=1 s) at different time intervals.
22Rv1 human prostate tumor xenograft bearing mouse was injected with 20 nmol of 40 and imaged with IVIS imager (ex=745 nm, em=ICG, exposure time=1 s) at different time intervals.
22Rv1 human prostate tumor xenograft bearing mouse was injected with 20 nmol of 41 and imaged with IVIS imager (ex=745 nm, em=ICG, exposure time=1 s) at different time intervals.
FIG. 25: Overlay of whole body or half body fluorescence image over white light images after adjusting the threshold. 22Rv1 human prostate tumor xenograft bearing mouse was injected with 20 nmol of 54 and imaged with IVIS imager (ex=745 nm, em=ICG, exposure time=1 s) at different time intervals.
22Rv1 human prostate tumor xenograft bearing mouse was injected with 20 nmol of 55 and imaged with IVIS imager (ex=745 nm, em=ICG, exposure time=1 s) at different time intervals.
22Rv1 human prostate tumor xenograft bearing mouse was injected with 20 nmol of 56 and imaged with IVIS imager (ex=745 nm, em=ICG, exposure time=1 s) at different time intervals.
22Rv1 human prostate tumor xenograft bearing mouse was injected with 20 nmol of 57 and imaged with IVIS imager (ex=745 nm, em=ICG, exposure time=1 s) at different time intervals
22Rv1 human prostate tumor xenograft bearing mouse was injected with 20 nmol of 58 and imaged with IVIS imager (ex=745 nm, em=ICG, exposure time=1 s) at different time intervals
22Rv1 human prostate tumor xenograft bearing mouse was injected with 20 nmol of 60 and imaged with IVIS imager (ex=745 nm, em=ICG, exposure time=1 s) at different time intervals.
in vivo studies. […] 22Rv1 human prostate tumor xenograft bearing mouse was injected with 20 nmol of 63 and imaged with IVIS imager (ex=745 nm, em=ICG, exposure time=1 s) at different time intervals.
22Rv1 human prostate tumor xenograft bearing mouse was injected with 6 nmol of 63 and imaged with IVIS imager (ex=745 nm, em=ICG, exposure time=1 s) at different time intervals.
22Rv1 human prostate tumor xenograft bearing mouse was injected with 20 nmol of 64 and imaged with IVIS imager (ex=745 nm, em=ICG, exposure time=1 s) at different time intervals.
22Rv1 human prostate tumor xenograft bearing mouse was injected with 6 nmol of 15 and imaged with IVIS imager (ex=745 nm, em=ICG, exposure time=1 s) at different time intervals.

[3] = Concentration dependent UV spectrometric study of higher order aggregates; format: physicochemical
Procedure: Possible OTL78-related hypersensitivity in human was next examined using basophil activation assay. Drug related hypersensitivity is mainly due to immune response caused by cross-linking of immunoglobulin E (IgE) expressed on mast cells and basophils (FIG. 47D) resulting in activation and subsequent degranulation to release vasoactive amines, prostaglandins, and cytokines (29). Since cross-linking of IgE can be due to aggregates, concentration dependent UV spectrometric studies were conducted to determine higher order aggregates of OTL78.

T1 sequence (Q04609 whole entry): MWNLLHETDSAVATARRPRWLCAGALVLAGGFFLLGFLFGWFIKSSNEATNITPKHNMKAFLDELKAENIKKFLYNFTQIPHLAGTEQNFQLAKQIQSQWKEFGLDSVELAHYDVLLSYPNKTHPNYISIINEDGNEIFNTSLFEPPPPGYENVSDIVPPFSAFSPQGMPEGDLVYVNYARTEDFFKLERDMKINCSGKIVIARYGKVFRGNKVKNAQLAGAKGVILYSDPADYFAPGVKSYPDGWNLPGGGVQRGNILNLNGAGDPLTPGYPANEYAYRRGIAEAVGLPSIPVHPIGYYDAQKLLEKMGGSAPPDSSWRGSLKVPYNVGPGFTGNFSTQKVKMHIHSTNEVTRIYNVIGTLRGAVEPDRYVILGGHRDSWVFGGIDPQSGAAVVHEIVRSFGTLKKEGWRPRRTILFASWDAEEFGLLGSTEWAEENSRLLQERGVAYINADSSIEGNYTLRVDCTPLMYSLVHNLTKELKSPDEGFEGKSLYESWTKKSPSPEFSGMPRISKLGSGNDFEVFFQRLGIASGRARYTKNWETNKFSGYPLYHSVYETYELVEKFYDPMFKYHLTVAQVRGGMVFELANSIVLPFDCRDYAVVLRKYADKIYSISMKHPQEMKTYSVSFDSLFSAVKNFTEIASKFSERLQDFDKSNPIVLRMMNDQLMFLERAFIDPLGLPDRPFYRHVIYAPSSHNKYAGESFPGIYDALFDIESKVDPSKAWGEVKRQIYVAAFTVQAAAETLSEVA

| affinity for PSMA (in words) (PSMA; in vitro binding affinity data) | Molecule | tumor-to-background ratio (TBR), in words [1] | sites of accumulation in whole-body imaging ([2]; 6 nmol, time dependent) | whole-body imaging [2] | pKd (PSMA; conjugates with aromatic linkers, 1 h at 37° C., 100 nM DUPA-FITC) | higher aggregates ([3]; 75 μM concentration in saline) [%] | higher order aggregates (UV spectra), in words ([3]; 75 μM in saline) |
| --- | --- | --- | --- | --- | --- | --- | --- |
| very high affinity | CC1(C)C(/C=C/C2=C(Oc3ccc(C[C@H](NC(=O)[C@H](Cc4ccccc4)NC(=O)CCCCCCCNC(=O)CC[C@H](NC(=O)N[C@@H](CCC(=O)O)C(=O)O)C(=O)O)C(=O)O)cc3)C(=C/C=C3/N(CCCCS(=O)(=O)O)c4ccc(S(=O)(=O)O)cc4C3(C)C)/CCC2)=[N+](CCCCS(=O)(=O)[O-])c2ccc(S(=O)(=O)O)cc21 [Compound 15] | excellent | accumulated in PSMA-positive tumors and kidneys | very good whole-body imaging data within 2-4 hours | – | – | – |
| – | CC1(C)C(/C=C/C2=C(Oc3ccc(C[C@H](NC(=O)[C@H](Cc4ccccc4)NC(=O)CCOCCOCCNC(=O)CC[C@H](NC(=O)N[C@@H](CCC(=O)O)C(=O)O)C(=O)O)C(=O)O)cc3)C(=C/C=C3/N(CCCCS(=O)(=O)O)c4ccc(S(=O)(=O)O)cc4C3(C)C)/CCC2)=[N+](CCCCS(=O)(=O)[O-])c2ccc(S(=O)(=O)O)cc21 [Compound 35] | excellent | – | very good whole-body imaging data within 2-4 hours | 7.62 | – | – |
| – | OTL38 [reference compound] | – | – | – | – | > 50 | concentration dependent aggregation peak |
